In patent publication US20020061599A1, “Method of identifying ligands of biological target molecules” (priority 1999, published 2002):
Entries after “also recorded” stand apart in the source; their conditions may differ. Blank lines part the entries; values can stand above or below the molecule they belong to.

What was measured:
[1] = target: T1, Factor VIIa (FVIIa) (Homo sapiens, UniProt P08709); test: Amidolytic activity of Factor VIIa; assay type: biochemical; conditions: for effect on the activity of FVIIa: chelator without metal-ions
T1 construct: Factor VIIa, i.e. the active form of the FVII protease involved in the coagulation cascade; purchased American Diagnostica
T1 sequence (P08709 213-466 limits assumed): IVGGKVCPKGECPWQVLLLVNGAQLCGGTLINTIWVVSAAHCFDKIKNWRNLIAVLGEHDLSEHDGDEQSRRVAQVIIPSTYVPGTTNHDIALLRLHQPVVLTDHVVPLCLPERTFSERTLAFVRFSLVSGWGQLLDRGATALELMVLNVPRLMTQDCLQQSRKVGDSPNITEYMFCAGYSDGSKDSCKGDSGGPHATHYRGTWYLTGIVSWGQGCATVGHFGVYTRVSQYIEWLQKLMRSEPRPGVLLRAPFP
T1 sequence (P08709 61-212 partner limits assumed): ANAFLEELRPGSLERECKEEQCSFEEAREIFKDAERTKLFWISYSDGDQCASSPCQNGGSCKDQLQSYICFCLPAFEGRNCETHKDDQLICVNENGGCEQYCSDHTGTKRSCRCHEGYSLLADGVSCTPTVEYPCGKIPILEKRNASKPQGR
Procedure: Method—The amidolytic activity of Factor VIIa (FVIIa) was measured by the incubation of 2.5 μl FVIIa (100 nM final concentration, obtained from American Diagnostica), 2.5 μl ligand and 4 μl substrate (10 mM, S2288 obtained from Chromogenix) in 42.5 μl buffer (50 mM Hepes pH 7.4, 1 mM CaCl2, 100 mM NaCl, 0,02% Tween 20). The assay was performed in 96-well plates (Costar). Incubation was performed at room temperature for five hours with absorbance read every 10 minutes.

[2] = target: T2, galanin R1 receptor (Homo sapiens, UniProt P47211); test: Whole cell competition binding with [125I]-galanin in COS-7 cells expressing galanin receptor; conditions: for binding affinity compared with the basic chelator 1,10-phenanthroline: chelator in complex with Cu(II)
T2 construct: expressed in transfected cells; host or cells: COS-7
T2 sequence (P47211 1-349): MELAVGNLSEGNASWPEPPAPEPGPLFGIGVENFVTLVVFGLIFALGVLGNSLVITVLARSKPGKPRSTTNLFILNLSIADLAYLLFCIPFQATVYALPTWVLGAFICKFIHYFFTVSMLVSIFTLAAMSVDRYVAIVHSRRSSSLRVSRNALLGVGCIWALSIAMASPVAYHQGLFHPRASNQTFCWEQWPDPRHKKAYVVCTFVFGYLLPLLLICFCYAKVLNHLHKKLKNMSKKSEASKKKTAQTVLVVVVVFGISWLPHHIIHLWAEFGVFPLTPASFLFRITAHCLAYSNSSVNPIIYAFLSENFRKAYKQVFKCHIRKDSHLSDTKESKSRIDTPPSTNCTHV
Text: Whole cell competition binding experiment with COS-7 cells expressing the wild type and mutant forms of the galanin receptor using [^125I]-galanin as radioligand.
Methods—The galanin receptor cDNA was introduced into COS-7 cells by the standard calcium phosphate transfection method. The cells were transferred and seeded in multi-well plates for assay one day following the transfection and the number of cells plated per well was adjusted for each individual (wild type and mutant) construct aiming at the binding of 5 to 10% of the radioligand present in the assay. Two days post-transfection the cells were assayed for the presence of [^125]-Galanin binding activity. Radioligand was bound in buffer composed of 25 mM Hepes (pH 7.4), 2.5 mM MgCl2, […] Baciacin and displaced in a dose dependent manner by unlabelled ligand. The assay was performed in triplicate for 3 hours at 4° C., and terminated by the addition of lysis buffer (48% urea, 2% NP-40 in 3M acetic acid). The concentration of radioligand in the assay corresponds to a final concentration of 20 pM.

[3] = target: T3, dopamine transporter (Homo sapiens, UniProt Q01959); test: [3H]-dopamine uptake in COS-7 cells expressing wild-type dopamine transporter; assay type: cell-based; conditions: for effect on dopamine transport: chelator by itself, without metal-ion
T3 construct: expressed in transfected cells; host or cells: COS-7
Procedure: Competition analysis of uptake of [^3H]-dopamine in whole COS-7 cells expressing the dopamine transporter.
(§1) Methods—The dopamine transporter cDNA was introduced into COS-7 by the standard calcium phosphate transfection method. Two days post-transfection the cells were assayed for [^3H]-Dopamine uptake activity. The uptake assays was performed in 25 mM Hepes pH 7.4, 120 mM NaCl, 5 mM KCl, 1.2 mM CaCl2, 1.2 mM MgSO4, 1 mM ascorbic acid and 5 mM D-glucose and in the presence of various concentrations of unlabelled dopamine as indicated in the figures. The assay was performed in triplicate at 37° C. for 10 minutes, and terminated by washing with buffer twice and the addition of lysis buffer (48% urea, 2% NP-40 in 3M acetic acid).

[4] = target: T4, leukotriene LTB4 receptor (Homo sapiens, UniProt Q15722); test: Whole cell competition binding with [3H]-LTB4 in COS-7 cells expressing wild type LTB4 receptor
T4 construct: expressed in transfected cells; host or cells: COS-7
Text: Whole cell competition binding experiment with COS-7 cells expressing the wild type and mutant variants of the leukotriene LTB4 receptor using [^3H]-LTB4 as the radioligand.
Methods—The leukotriene LTB4 receptor cDNA was cloned by PCR from a leukocyte cDNA library, built into an eukaryotic expression vector and introduced into COS-7 cells by a standard calcium phosphate transfection method. One day after transfection the cells were transferred and seeded in multi-well plates for assay. The number of cells plated per well was chosen so as to obtain 5 to 10% binding of the radioligand added. Two days after transfection the cells were assayed for the presence of [^3H]-LTB4 binding activity. […] The assay was performed in duplicate for 3 hours at 4° C., and stopped by washing twice in buffer. Cell associated, receptor bound radioligand was determined by the addition of lysis buffer (48% urea, 2% NP-40 in 3M acetic acid).

[5] = test system: metal-ion site engineered tachykinin NK1 receptors; test: Competition binding with [125I]-Substance P, library of inter-helical metal-ion sites engineered into NK1 receptor; conditions: sites between TM-III and -V and between TM-V and -VI
Procedure: COS-7 cells expressing various engineered forms of the NK1 receptor were analyzed by competition binding using [^125I]-Substance P as radioligand

[6] = target: T5, NK1 receptor [HisV:05,HisVI:24] (Homo sapiens, UniProt P25103, Y272H); test: Competition binding with [125I]-Substance P, NK1 receptor [HisV:05,HisVI:24] site; conditions: all in complex with Zn(II)
T5 construct: expressed in transfected cells; host or cells: COS-7
Procedure: (§2) Binding of [^125I]-Substance P was analysed in COS-7 cells expressing NK1 receptor which have been engineered to bind the zinc metal-ion. Ligand binding is presented in competiton with the zinc metal-ion, the zinc-1,10-phenanthroline complex and with other zinc-chelator complexes as indicated. For structures of the chelators, see Appendix.

[7] = target: T6, NK1 receptor [HisIII:08;CysVII:06] (Homo sapiens, UniProt P25103, M291C/P112H); test: Competition binding with [125I]-Substance P, NK1 receptor [HisIII:08;CysVII:06] site; conditions: all in complex with Zn(II)
T6 construct: expressed in transfected cells; host or cells: COS-7
Procedure: as §2

[8] = target: T7, [H193K] dopamine transporter (Homo sapiens, UniProt Q01959, H193K); test: [3H]-dopamine uptake in COS-7 cells, [H193K] mutant dopamine transporter; assay type: cell-based; conditions: mutational substitution of His193; chelator in complex with Zn(II)
T7 construct: expressed in transfected cells; host or cells: COS-7
Procedure: Panel B. Dopamine uptake analysis in a mutant form of the dopamine transporter, [H193K], in which binding of the metal-ion complex has been eliminated (Noregaard et al. EMBO J. (1998) 17: 4266-4273).
as §1

T6 sequence (P25103 whole entry P112H/M291C): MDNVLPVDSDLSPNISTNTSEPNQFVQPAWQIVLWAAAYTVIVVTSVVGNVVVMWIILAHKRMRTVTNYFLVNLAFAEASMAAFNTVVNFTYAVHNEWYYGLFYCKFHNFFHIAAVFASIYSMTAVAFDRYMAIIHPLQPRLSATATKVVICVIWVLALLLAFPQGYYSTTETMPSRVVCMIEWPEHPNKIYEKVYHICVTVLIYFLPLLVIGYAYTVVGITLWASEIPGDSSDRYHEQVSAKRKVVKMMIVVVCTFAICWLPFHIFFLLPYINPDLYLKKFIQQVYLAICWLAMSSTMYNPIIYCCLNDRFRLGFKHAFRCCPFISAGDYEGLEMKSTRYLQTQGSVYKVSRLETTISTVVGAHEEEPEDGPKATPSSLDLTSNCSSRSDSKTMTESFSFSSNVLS
T3 sequence (Q01959 whole entry): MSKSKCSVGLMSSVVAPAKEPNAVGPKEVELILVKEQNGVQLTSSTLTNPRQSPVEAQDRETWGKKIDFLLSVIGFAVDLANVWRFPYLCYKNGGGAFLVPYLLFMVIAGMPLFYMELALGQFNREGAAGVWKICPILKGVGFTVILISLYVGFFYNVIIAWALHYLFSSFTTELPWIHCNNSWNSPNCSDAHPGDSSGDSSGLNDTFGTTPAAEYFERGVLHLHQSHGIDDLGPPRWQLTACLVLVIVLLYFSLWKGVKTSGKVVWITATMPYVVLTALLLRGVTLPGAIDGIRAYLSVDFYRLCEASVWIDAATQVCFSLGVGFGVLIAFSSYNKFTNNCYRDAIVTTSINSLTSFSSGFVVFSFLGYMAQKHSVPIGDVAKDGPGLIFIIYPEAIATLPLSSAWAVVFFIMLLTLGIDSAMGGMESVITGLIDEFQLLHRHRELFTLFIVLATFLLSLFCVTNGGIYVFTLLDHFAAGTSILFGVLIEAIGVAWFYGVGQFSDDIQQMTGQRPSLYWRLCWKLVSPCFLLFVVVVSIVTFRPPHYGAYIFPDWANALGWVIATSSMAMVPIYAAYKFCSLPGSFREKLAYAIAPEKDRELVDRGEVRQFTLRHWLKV
T5 sequence (P25103 whole entry Y272H): as the sequence (P25103 whole entry P112H/M291C) above, with H112P, Y272H, C291M counted along it
T4 sequence (Q15722 whole entry): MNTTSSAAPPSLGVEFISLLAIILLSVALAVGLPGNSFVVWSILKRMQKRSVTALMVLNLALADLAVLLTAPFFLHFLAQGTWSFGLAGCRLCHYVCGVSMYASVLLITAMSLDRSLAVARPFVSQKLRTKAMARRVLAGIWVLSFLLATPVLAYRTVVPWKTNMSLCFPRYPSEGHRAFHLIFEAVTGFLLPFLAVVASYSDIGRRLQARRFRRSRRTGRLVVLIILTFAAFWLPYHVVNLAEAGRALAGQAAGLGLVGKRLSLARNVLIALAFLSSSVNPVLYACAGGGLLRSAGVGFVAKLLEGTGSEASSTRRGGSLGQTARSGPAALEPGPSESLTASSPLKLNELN
T7 sequence (Q01959 whole entry H193K): as the sequence (Q01959 whole entry) above, with H193K counted along it

binding, fold better than 1,10-phenanthroline [6]: 6 fold | potency of inhibiting FVIIa compared with the basic chelator complex ([1]; chelator in complex with Zn(II)): increased potency | binding compared with 1,10′-phenanthroline [7]: almost similar
Structure (SMILES): ClC(Cl)(Cl)c1ccc2ccc3ccc(C(Cl)(Cl)Cl)nc3c2n1 [compound 135, 2,9-bis(trichloromethyl)-1,10-phenanthroline]

binding, fold better than 1,10-phenanthroline [6]: 10 fold | binding compared with 1,10′-phenanthroline [7]: almost similar
Structure (SMILES): O=C1C(=O)c2cccnc2-c2ncccc21 [compound 175, 1,10-phenanthroline-5,6-dione]

binding affinity compared with the basic chelator 1,10-phenanthroline [2]: increase the binding affinity
Structure (SMILES): Cc1cc2cccnc2c2ncccc12 [compound 176, 5-methyl-1,10-phenanthroline]

effect of the metal-ion chelator complex on dopamine transport [8]: eliminated | effect on dopamine transport [3]: does not affect | potency of blocking dopamine transport, fold higher than free Zn(II) ([3]; chelator in complex with Zn(II), mono-component): approx 10 fold
Structure (SMILES): CC(=O)O/N=C(\N)c1ccccn1 [compound 210, 2-pyridylamidoxime, O-acetyl]

Second part, the molecule before the results:

Structure (SMILES): c1cnc2c(c1)ccc1cccnc12 [1,10-phenanthroline, reference compound]
effect on the activity of FVIIa [1]: no effect | effect on [125I]-galanin binding ([2]; chelator alone, without metal-ion): no effect

Structure (SMILES): c1ccc(-c2ccccn2)nc1 [2,2′-bipyridine, reference compound]
effect on dopamine transport [3]: no effect | effect on the activity of FVIIa [1]: no effect

Structure (SMILES): [Cl][Cu][Cl] [Cu(II), reference compound]
IC50 ([4]; wild type receptor, whole COS-7 cells, read-out: IC50, displacement of [3H]-LTB4): 70 µM | increase in affinity versus wild-type [5]: no increase or just a marginal increase in affinity | Hill coefficient ([2]; displacement of [125I]-galanin): −4

Structure (SMILES): OCc1ccc2ccc3ccc(CO)nc3c2n1 [compound 133, 2,9-dimethanol-1,10-phenanthroline]
binding affinity compared with the basic chelator 1,10-phenanthroline [2]: decrease the affinity

Structure (SMILES): c1ccc(-c2cc3cccnc3c3ncccc23)cc1 [compound 134, 5-phenyl-1,10-phenanthroline]
potency compared with phenanthroline [6]: only slightly more potent | binding of the metal-ion chelator complex compared with 1,10-phenanthroline ([4]; chelator in complex with Cu(II)): entirely eliminated the binding; also recorded: totally inactive | binding affinity compared with the basic chelator 1,10-phenanthroline [2]: bound like 1,10′-phenanthroline | potency, fold more potent than phenanthroline [7]: 7 fold
